Test results reported in PubChem BioAssay AID1259407 (Chemical Carcinogenesis Research Information System (CCRIS), 2018).
Activity calls are given as the source filed them. No rule for the calls is given here.

System: CCRIS mutagenicity, Ames/micronucleus/aberration tests
Test: CCRIS mutagenicity studies
[1] = Test System: AMES SALMONELLA TYPHIMURIUM, Strain/Indicator: TA98, Metabolic Activation: NONE, Method: PREINCUBATION
[2] = Test System: AMES SALMONELLA TYPHIMURIUM, Strain/Indicator: TA100, Metabolic Activation: NONE, Method: PREINCUBATION
[3] = Test System: AMES SALMONELLA TYPHIMURIUM, Strain/Indicator: TA1535, Metabolic Activation: NONE, Method: PREINCUBATION

`CCNc1nc(Cl)nc(NC(C)(C)C#N)n1` was tested, and the mutagenic call (End Point: In vitro chromosomal aberrations, Test System: Human lymphocytes, Metabolic Activation: None) was “inactive; negative for aberrations but cell cycle delay at 250 and 350 ug/ml doses”, the mutagenic call (End Point: In vitro chromosomal aberrations, Test System: Human lymphocytes, Metabolic Activation: Rat, liver, S-9, Aroclor 1254) was “inactive; negative” and the mutagenic call (Test System: Ames Salmonella typhimurium, Strain/Indicator: TA97a, Metabolic Activation: None, Method: Plate incorporation) was “inactive; negative, cytotoxicity at highest dose”. For the same compound, the mutagenic call (Test System: Ames Salmonella typhimurium, Strain/Indicator: TA97a, Metabolic Activation: Rat, liver, S-9, Aroclor 1254, Method: Plate incorporation) was “inactive; negative, cytotoxicity at highest dose”, the mutagenic call (Test System: Ames Salmonella typhimurium, Strain/Indicator: TA98, Metabolic Activation: None, Method: Plate incorporation) was “inactive; negative, cytotoxicity at highest dose” and the mutagenic call (Test System: Ames Salmonella typhimurium, Strain/Indicator: TA98, Metabolic Activation: Rat, liver, S-9, Aroclor 1254, Method: Plate incorporation) was “inactive; negative, cytotoxicity at highest dose”. The mutagenic call (Test System: Ames Salmonella typhimurium, Strain/Indicator: TA100, Metabolic Activation: None, Method: Plate incorporation) was “inactive; negative, cytotoxicity at highest dose”, the mutagenic call (Test System: Ames Salmonella typhimurium, Strain/Indicator: TA100, Metabolic Activation: Rat, liver, S-9, Aroclor 1254, Method: Plate incorporation) was “inactive; negative, cytotoxicity at highest dose” and the mutagenic call (Test System: Ames Salmonella typhimurium, Strain/Indicator: TA1535, Metabolic Activation: None, Method: Plate incorporation) was “inactive; negative, cytotoxicity at highest dose”. For the same compound, the mutagenic call (Test System: Ames Salmonella typhimurium, Strain/Indicator: TA1535, Metabolic Activation: Rat, liver, S-9, Aroclor 1254, Method: Plate incorporation) was “inactive; negative, cytotoxicity at highest dose”, the mutagenic call (Test System: UDS HUMAN PERIPHERAL BLOOD LYMPHOCYTES, Strain/Indicator: THY INCORP, Metabolic Activation: NONE, Method: LIQUID SCINTILLATION) was “inactive; negative” and the mutagenic call (Test System: UDS HUMAN PERIPHERAL BLOOD LYMPHOCYTES, Strain/Indicator: THY INCORP, Metabolic Activation: RAT, LIVER, S-9, PHENOBARBITAL AND BETA-NAPHTHOFLAVONE, Method: LIQUID SCINTILLATION) was “inactive; negative”. For the same compound, the mutagenic call (Test System: UDS rat primary hepatocytes, Strain/Indicator: Thymidine incorporation, Metabolic Activation: None, Method: Autoradiography) was “active; positive at >/= 1 um”.
For `N#CCCO`, the mutagenic call (Test System: AMES SALMONELLA TYPHIMURIUM, Strain/Indicator: TA97, Metabolic Activation: HAMSTER, LIVER, S-9, AROCLOR 1254 (10 OR 30%), Method: PREINCUBATION) was “inactive; negative”, the mutagenic call (Test System: AMES SALMONELLA TYPHIMURIUM, Strain/Indicator: TA97, Metabolic Activation: NONE, Method: PREINCUBATION) was “inactive; negative” and the mutagenic call (Test System: AMES SALMONELLA TYPHIMURIUM, Strain/Indicator: TA97, Metabolic Activation: RAT, LIVER, S-9, AROCLOR 1254 (10 OR 30%), Method: PREINCUBATION) was “inactive; negative”. The mutagenic call (Test System: AMES SALMONELLA TYPHIMURIUM, Strain/Indicator: TA98, Metabolic Activation: HAMSTER, LIVER, S-9, AROCLOR 1254 (10 OR 30%), Method: PREINCUBATION) was “inactive; negative”, the mutagenic call [1] was “inactive; negative” and the mutagenic call (Test System: AMES SALMONELLA TYPHIMURIUM, Strain/Indicator: TA98, Metabolic Activation: RAT, LIVER, S-9, AROCLOR 1254 (10 OR 30%), Method: PREINCUBATION) was “inactive; negative”. For the same compound, the mutagenic call (Test System: AMES SALMONELLA TYPHIMURIUM, Strain/Indicator: TA100, Metabolic Activation: HAMSTER, LIVER, S-9, AROCLOR 1254 (10 OR 30%), Method: PREINCUBATION) was “inactive; negative”, the mutagenic call [2] was “inactive; negative” and the mutagenic call (Test System: AMES SALMONELLA TYPHIMURIUM, Strain/Indicator: TA100, Metabolic Activation: RAT, LIVER, S-9, AROCLOR 1254 (10 OR 30%), Method: PREINCUBATION) was “inactive; negative”. The mutagenic call (Test System: AMES SALMONELLA TYPHIMURIUM, Strain/Indicator: TA1535, Metabolic Activation: HAMSTER, LIVER, S-9, AROCLOR 1254 (10 OR 30%), Method: PREINCUBATION) was “inactive; negative”, the mutagenic call [3] was “inactive; negative” and the mutagenic call (Test System: AMES SALMONELLA TYPHIMURIUM, Strain/Indicator: TA1535, Metabolic Activation: RAT, LIVER, S-9, AROCLOR 1254 (10 OR 30%), Method: PREINCUBATION) was “inactive; negative”.
With `COC(=O)C1=C(C)NC(C)=C(C(=O)OCC(C)=O)C1c1ccccc1[N+](=O)[O-]` (stereo unspecified) the mutagenic call [1] was “inactive; negative”, the mutagenic call (Test System: AMES SALMONELLA TYPHIMURIUM, Strain/Indicator: TA98, Metabolic Activation: S-9, Method: PREINCUBATION) was “inactive; negative” and the mutagenic call [2] was “inactive; negative”. For the same compound, the mutagenic call (Test System: AMES SALMONELLA TYPHIMURIUM, Strain/Indicator: TA100, Metabolic Activation: S-9, Method: PREINCUBATION) was “inactive; negative”, the mutagenic call [3] was “inactive; negative” and the mutagenic call (Test System: AMES SALMONELLA TYPHIMURIUM, Strain/Indicator: TA1535, Metabolic Activation: S-9, Method: PREINCUBATION) was “inactive; negative”. For the same compound, the mutagenic call (Test System: AMES SALMONELLA TYPHIMURIUM, Strain/Indicator: TA1537, Metabolic Activation: NONE, Method: PREINCUBATION) was “inactive; negative”, the mutagenic call (Test System: AMES SALMONELLA TYPHIMURIUM, Strain/Indicator: TA1537, Metabolic Activation: S-9, Method: PREINCUBATION) was “inactive; negative” and the mutagenic call (Test System: E.COLI, Strain/Indicator: WP2 UVRA, Metabolic Activation: NONE, Method: PREINCUBATION) was “inactive; negative”. The mutagenic call (Test System: E.COLI, Strain/Indicator: WP2 UVRA, Metabolic Activation: S-9, Method: PREINCUBATION) was “inactive; negative”.
For `O=C1OC2(c3cc(Br)c(O)c(Br)c3Oc3c2cc(Br)c(O)c3Br)c2c(Cl)ccc(Cl)c21`, the mutagenic call (End Point: IN VIVO MICRONUCLEUS, Test System: BONE MARROW POLYCHROMATIC ERYTHROCYTES, Species: MOUSE, Strain/Sex: DDY/MALE, Route: IP) was “inactive; negative”.
